Columns and labels:
[1] = system: CD8+ T cells; assay: IFNγ ELISPOT, ZIKV-infected Ifnar-/- HLA-B*0702 transgenic mice; assay type: cell-based, mouse; details: HLA-B*0702 mice; for SFC/10^6 CD8+ T cells, FSS13025: 7 days after 1×10^2 FFU ZIKV FSS13025; for SFC/10^6 CD8+ T cells, MR766: 7 days after 1×10^2 FFU ZIKV MR766; for immunodominance in IFNγ ELISPOT: immunodominant: >500 SFCs/10^6 CD8+ T cells, shared by both ZIKV strains
In short: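 Mice were infected retro-orbitally with 1×10^2 FFU ZIKV (FSS13025 or MR766), and splenic CD8+ T cells were isolated 7 days later. 2×10^5 cells were stimulated 20 h with 1×10^5 LPS-blasts loaded with 10 μg peptide, in triplicate. Output is SFC/10^6 CD8+ T cells; positive if net >20 and stimulation index >2.0.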

[2] = system: CD44+CD62L- CD8+ T cells; assay: ICS, peptide-immunized Ifnar-/- HLA-B*0702 mice challenged with ZIKV; assay type: cell-based, mouse; details: mice immunized with the 4 ZIKV/DENV cross-reactive peptides, day 3 after ZIKV challenge
Description: Two HLA-B*0702-binding ZIKV-specific peptides (FSS-NS2A133-141(SEQ ID NO: 41) and FSS/MR766-NS2B68-75 (SEQ ID NO: 45)) and four ZIKV/DENV cross-reactive peptides (FSS/MR766-NS4B426-435 (SEQ ID NO: 60), FSS/MR766-NS2A75-84 (SEQ ID NO: 39), FSS/MR766-NS3206-215 (SEQ ID NO: 47), and FSS/MR766-NS3574-582 (SEQ ID NO: 52)) were chosen for synthesis. Five HLA-A*0101-binding peptides (FSS/MR-E159-167 (SEQ ID NO: 70), FSS/MR-E195-203 (SEQ ID NO: 71), FSS/MR-NS123-31 (SEQ ID NO: 74), FSS/MR-NS4B231-239 (SEQ ID NO: 77), and FSS/MR-NS5509-517 (SEQ ID NO: 79)) were chosen for synthesis. Mice (both female and male; 5-6 weeks of age) were immunized subcutaneously with a mixture of HCV helper peptide (100 μg/mouse) and 3 or 4 HLA-B*0702-binding peptides (50 μg/peptide/mouse) emulsified in Complete Freund's Adjuvant (CFA). Mock group mice received the same immunization strategy but without any ZIKV-specific or ZIKV/DENV cross-reactive peptide. On the 21st day, mice were boosted with the same peptide mixtures emulsified in Incomplete Freund's Adjuvant (IFA). […] Three days post ZIKV infection mice were sacrificed, and serum and spleen were harvested. The splenocytes were used for ICS assay. After cardiac perfusion with PBS, brain was harvested. The levels of infectious ZIKV in serum and brain were measured using FFA.
Spleens were harvested from virus-infected, mock-immunized, or peptide-immunized mice. 1×10^6 splenocytes were plated in each well of 96-well U-bottom plates and stimulated with individual peptide (10 μg crude peptide or 1 μg pure peptide per well) for 6 hours. Five hours before the end of incubation, Brefeldin A (GolgiPlug; BD Biosciences) and PE-conjugated anti CD107a mAb (clone 1D4B, eBioscience) were added to the cells. Splenocytes stimulated with PMA-ionomycin were used as the positive control, while cells without any stimulation were the negative control. […] Samples were run using an LSR™ II (BD Biosciences) and analyzed using FLOWJO™ software X 10.0.7 (Tree Star, Ashland, Oreg.).
Peptide groups received corresponding peptide immunizations as described in Materials and Methods. […] CD3^+CD8^+CD44^+CD62L− T cells were gated and the percentages of IFNγ^+ and/or TNFα^+ cells in a representative mouse from mock (FIG. 12A) and peptide (FIG. 12B) groups were determined by ICS. The levels of infectious ZIKV in sera and brains were measured via FFA. Data were expressed as mean±SEM. *, P<0.05; **, P<0.01; ***, P<0.001. Two-tailed Mann-Whitney test.

Sequence | SFC/10^6 CD8+ T cells, FSS13025 [1] [SFC/10^6 CD8+ T cells] | SFC/10^6 CD8+ T cells, MR766 [1] [SFC/10^6 CD8+ T cells] | immunodominance in IFNγ ELISPOT [1] | percentage of epitope-specific cells among antigen experienced (CD44+CD62L-) CD8+ T cells [2] [%]
KPRWMDARV [FSS/MR-NS3574-582] | 969 | 1095 | immunodominant | 0.84±0.39
RPALLVSFIF [FSS/MR-NS2A75-84] | 713 | 582 | immunodominant | 3.27±1.91
